Where a name gives a salt, the structure may show the parent alone. Read-outs that look alike come from different tables or passages of the source.
System: ATGL-KO iPSCs
Test: High throughput iPSC chemical screening, Oil Red O (ORO) lipid accumulation; as to Z-score: test concentration or dose not given here
Assay type: cell-based, mouse
[1] = normalized ORO level vs DMSO-treated cells, compound present during 7 days differentiation, 96-well, negative = decrease in lipid accumulation

Row | Compound | Z-score [1] | other results
1 | C[C@]12CC[C@H]3[C@@H](CCC4=CC(=O)CC[C@@]43C)[C@@H]1CC[C@@H]2C(=O)CO [Deoxycorticosterone] | 0.6523 | –
2 | Cc1c2ccncc2c(C)c2c1[nH]c1ccccc12 [Ellipticine] | 36.711 | –
3 | COc1cc(Cc2cnc(N)nc2N)cc(OC)c1OC [Trimethoprim] | −0.9568 | –
4 | CC1(C)S[C@@H]2[C@H](NC(=O)[C@H](NC(=O)N3CCNC3=O)c3ccccc3)C(=O)N2[C@H]1C(=O)O [Azlocillin sodium salt] | −1.1617 | –
5 | CCN1C[C@]2(COC)CC[C@H](OC)[C@]34C5C[C@@H]6[C@@H](OC)C[C@@]7(OCO[C@@]7(C13)[C@@H](O)C24)C5[C@H]6OC (stereo partly shown) [Delcorine] | −1.4115 | –
6 | CO[C@@H]1[C@@H](O[C@@H]2O[C@H](C)[C@@H](O[C@H]3C[C@@](C)(O)[C@@H](OC(=O)CC(C)C)[C@H](C)O3)[C@H](N(C)C)[C@H]2O)[C@@H](CC=O)C[C@@H](C)[C@@H](O)/C=C/C=C/C[C@@H](C)OC(=O)C[C@H]1OC(C)=O [Josamycin] | −0.5964 | –
7 | C/C=C(/C(=C/C)c1ccc(O)cc1)c1ccc(O)cc1 [Dienestrol] | 0.1268 | –
8 | CC(=O)OCC1=C(C(=O)O)N2C(=O)[C@@H](N)[C@H]2SC1 [Cephalosporanic acid, 7-amino] | 0.3224 | –
9 | C[C@H](CS)C(=O)N1CCC[C@H]1C(=O)O [Captopril] | −0.2654 | –
10 | COCCOC(=O)C1=C(C)NC(C)=C(C(=O)OC(C)C)C1c1cccc([N+](=O)[O-])c1 (stereo not shown) [Nimodipine] | −1.6971 | –
11 | Cc1ccnc(NS(=O)(=O)c2ccc(N)cc2)n1 [Sulfamerazine] | −0.0984 | –
12 | CCCN1C[C@H](CSC)C[C@@H]2c3cccc4[nH]cc(c34)C[C@H]21 [Pergolide mesylate] | −0.3289 | –
13 | Nc1nc(=O)c2c([nH]1)NCC(CNc1ccc(C(=O)N[C@@H](CCC(=O)[O-])C(=O)[O-])cc1)N2C=O.[Ca+2] (stereo partly shown) [Folinic acid calcium salt] | −0.7409 | –
14 | C=CCc1ccccc1OCC(O)CNC(C)C (stereo not shown) [Alprenolol hydrochloride] | 0.9239 | –
15 | O=C(O)C1CCCNC1 (racemic) [(±)-Nipecotic acid] | – | Z-score: 0.6655
16 | Oc1ccc2c3c1O[C@H]1[C@@H](O)CC[C@@]4(O)[C@@H](C2)N(CC2CCC2)CC[C@]314 [Nalbuphine hydrochloride] | – | Z-score: −1.0996
17 | CC(=O)c1ccc2c(c1)N(CCCN(C)C)c1ccccc1S2.O=C(O)/C=C\C(=O)O [Acetopromazine maleate salt] | −0.5926 | –
18 | C[C@@H]1CCC[C@H](C)N1.Cl [(cis-) Nanophine] | −1.4074 | –
19 | c1coc(CNc2ncnc3nc[nH]c23)c1 [6-Furfurylaminopurine] | 0.2192 | –
20 | CC(=O)Oc1ccccc1C(=O)Oc1ccccc1C(=O)O [Acetylsalicylsalicylic acid] | −1.3067 | –
21 | Nc1[nH]c(=O)ncc1F [Flucytosine] | −0.8908 | –
22 | CC(=O)[C@@]1(O)CC[C@H]2[C@@H]3C[C@H](C)C4=CC(=O)C=C[C@]4(C)[C@@]3(F)[C@@H](O)C[C@@]21C [Fluorometholone] | 0.1317 | –
23 | CCOC(=O)[N-]c1cn(N2CCOCC2)n[o+]1 [Molsidomine] | 1.761 | –
24 | C[C@@H]1CN([C@H]2CC[C@](C#N)(c3ccc(F)cc3)CC2)CC[C@]1(C(=O)O)c1ccccc1 [Levocabastine hydrochloride] | 1.078 | –
25 | (S)-propranolol hydrochloride | 0.368 | –
26 | COc1ccc2cc3[n+](cc2c1OC)CCc1cc2c(cc1-3)OCO2 [Berberine chloride] | 12.68 | –

Row | Compound | Z-score [1] | other results
27 | O=C(/C=C/c1ccc(O)c(O)c1)O[C@@H]1C[C@](O)(C(=O)O)C[C@@H](O)[C@H]1O [Chlorogenic acid] | 0.1486 | –
28 | NC(N)=Nc1nc(CSCCC(N)=NS(N)(=O)=O)cs1 [Famotidine] | −1.1457 | –
29 | CC(=O)O[C@]1(C(C)=O)CC[C@H]2[C@@H]3C=C(Cl)C4=CC(=O)[C@@H]5C[C@@H]5[C@]4(C)[C@H]3CC[C@@]21C [Cyproterone acetate] | −1.2528 | –
30 | CC(C)(C)NCC(O)COc1cccc2c1CCC(=O)N2 (stereo not shown) [Carteolol hydrochloride] | −0.6876 | –
31 | CC(Oc1ccccc1)C(=O)N[C@@H]1C(=O)N2[C@@H]1SC(C)(C)[C@@H]2C(=O)O (stereo partly shown) [Phenethicillin potassium salt] | −0.0851 | –
32 | CCCOc1cc(N)ccc1C(=O)OCCN(CC)CC [Propoxycaine hydrochloride] | −0.3049 | –
33 | CC(C)NCC(O)COc1ccc(COCCOC(C)C)cc1 (stereo not shown) [Bisoprolol fumarate] | 0.03425 | –
34 | CCN1C(=O)NC(c2ccccc2)C1=O (stereo not shown) [Ethotoin] | −0.7327 | –
35 | CC(=O)S[C@@H]1CC2=CC(=O)CC[C@]2(C)[C@H]2CC[C@@]3(C)[C@@H](CC[C@@]34CCC(=O)O4)[C@H]12 [Spironolactone] | −1.7632 | –
36 | CN1Cc2c(N)cccc2C(c2ccccc2)C1 (stereo not shown) [Nomifensine maleate] | −1.3149 | –
37 | CCCNCC(O)COc1ccccc1C(=O)CCc1ccccc1 (stereo not shown) [Propafenone hydrochloride] | −0.6438 | –
38 | Cc1nccn1CC1CCc2c(c3ccccc3n2C)C1=O (stereo not shown) [Ondansetron Hydrochloride] | −0.6933 | –
39 | C=CCOC(Cn1ccnc1)c1ccc(Cl)cc1Cl (stereo not shown) [Enilconazole] | −0.0014 | –
40 | CC(=O)O[C@H]1C[C@H](O[C@H]2[C@@H](O)C[C@H](O[C@H]3[C@@H](O)C[C@H](O[C@H]4CC[C@@]5(C)[C@H](CC[C@@H]6[C@@H]5C[C@@H](O)[C@]5(C)[C@@H](C7=CC(=O)OC7)CC[C@]65O)C4)O[C@@H]3C)O[C@@H]2C)O[C@H](C)[C@H]1O[C@@H]1O[C@H](CO)[C@@H](O)[C@H](O)[C@H]1O [Lanatoside C] | −1.0291 | –
41 | Deptropine citrate | −0.0889 | –
42 | CN(C)CCOC(c1ccccc1)c1ccccc1.Cn1c(=O)c2[nH]c(Cl)nc2n(C)c1=O [Dimenhydrinate] | −0.7776 | –
43 | NC(=O)c1cc[n+](CC2=C(C(=O)O)N3C(=O)[C@@H](NC(=O)[C@@H](c4ccccc4)S(=O)(=O)[O-])[C@H]3SC2)cc1 [Cefsulodin sodium salt] | −1.1155 | –
44 | Cc1cc(-c2ccccc2)nnc1NCCN1CCOCC1 [Minaprine dihydrochloride] | 0.429 | –
45 | C(=C\c1ccccc1)/CN1CCN(C(c2ccccc2)c2ccccc2)CC1 [Cinnarizine] | −1.6064 | Rank in normalized ORO score from screen (glycolytic switch compounds): 44
46 | CC(C)NCC(O)c1ccc(NS(C)(=O)=O)cc1 (stereo not shown) [Sotalol hydrochloride] | 0.2363 | –
47 | C#CCN(C)Cc1ccccc1 [Pargyline hydrochloride] | −0.735 | –
48 | C[C@H]1C(=O)O[C@@H]2CCN3CC=C(COC(=O)[C@](C)(O)[C@]1(C)O)[C@H]23 [Monocrotaline] | −1.7819 | –
49 | CCN(CC)CCc1nc(-c2ccccc2)no1.O=C(O)CC(O)(CC(=O)O)C(=O)O [Oxalamine citrate salt] | −1.3452 | –
50 | COC(=O)Nc1nc2ccc(C(=O)c3ccccc3)cc2[nH]1 [Mebendazole] | 49.935 | –
51 | Cc1n[nH]c(=O)[nH]c1=O [Azathymine, 6] | −0.2304 | –
52 | O=c1c(O)c(-c2ccc(O)cc2)oc2cc(O)cc(O)c12 [Kaempferol] | −0.0374 | –

Row | Compound | Z-score [1] | other results
53 | CO[C@@H]1C=C2CCN(C)[C@@H]2C2c3cc4c(cc3C(=O)OC21)OCO4.O=[N+]([O-])O (stereo partly shown) [Ungerine nitrate] | −1.1174 | –
54 | CCCCNC(=O)NS(=O)(=O)c1ccc(C)cc1 [Tolbutamide] | −0.8086 | –
55 | CC(=O)N(CC(C)C(=O)O)c1c(I)cc(I)c(N)c1I (stereo not shown) [Iocetamic acid] | −1.5742 | –
56 | O=C(O)c1cc(=O)c2c(OCC(O)COc3cccc4oc(C(=O)O)cc(=O)c34)cccc2o1 [Cromolyn disodium salt] | −1.7273 | –
57 | Solanine alpha | −1.7798 | –
58 | COc1cc2nc(N3CCN(C(=O)c4ccco4)CC3)nc(N)c2cc1OC [Prazosin hydrochloride] | 0.6597 | –
59 | Cc1ccsc1/C=C/C1=NCCCN1C [Morantel tartrate] | 1.005 | –
60 | CCNC1(c2cccs2)CCCCC1=O.Cl (stereo not shown) [Tiletamine hydrochloride] | 1.2858 | –
61 | CN1C2CC(=O)CC1C(O)C2 (stereo not shown) [6-Hydroxytropinone] | 0.54 | –
62 | CC[N+](C)(C)c1cccc(O)c1 [Edrophonium chloride] | 0.4533 | –
63 | COc1c(C)c2c(c(O)c1C/C=C(\C)CCC(=O)O)C(=O)OC2 [Mycophenolic acid] | 36.1922 | –
64 | CN(C)CCOC(C)(c1ccccc1)c1ccccn1 (stereo not shown) [Doxylamine succinate] | 0.07172 | –
65 | OC[C@H]1O[C@@H](Oc2ccc(O)cc2)[C@H](O)[C@@H](O)[C@@H]1O [Arbutin] | 0.1806 | –
66 | C[C@@]1(O)CCOC(=O)C1 [Mevalonic-D, L acid lactone] | −1.4333 | –
67 | CN(C)c1ccc(O)c2c1C[C@H]1C[C@H]3[C@H](N(C)C)C(O)=C(C(N)=O)C(=O)[C@@]3(O)C(O)=C1C2=O [Minocycline hydrochloride] | 5.776 | –
68 | Vitamin K2 | 0.6129 | –
69 | CCCCOc1cc(C(=O)OCCN(CC)CC)ccc1N [Benoxinate hydrochloride] | 0.4398 | –
70 | Eburnamonine (−) | −1.0688 | –
71 | Cc1ncc([N+](=O)[O-])n1CC(O)CCl (stereo not shown) [Ornidazole] | 0.7824 | –
72 | NNCCc1ccccc1 [Phenelzine sulfate] | 0.6672 | –
73 | O=C(O)[C@H](O)[C@@H](O)[C@H](O[C@@H]1O[C@H](CO)[C@H](O)[C@H](O)[C@H]1O)[C@H](O)CO [Lactobionic acid] | −0.5092 | –
74 | CC(=O)NC(CC(=O)O)C(=O)O (racemic) [Aspartic acid, N-acetyl (R,S)] | 0.7559 | –
75 | O=C(N[C@H](CO)[C@H](O)c1ccc([N+](=O)[O-])cc1)C(Cl)Cl [Chloramphenicol] | 1.318 | –
76 | CCN(CC)CCNC(=O)c1cc(Br)c(N)cc1OC [Bromopride] | 0.9486 | –
77 | CCCCNc1ccc(C(=O)OCCN(C)C)cc1.Cl [TetracaOne hydrochloride] | −0.5979 | –
78 | NC(=O)NC1NC(=O)NC1=O (stereo not shown) [Allantoin] | 0.8256 | –
